Values after ≈ are worked out from the molar mass of the structure shown. Where two headings read alike, the source gives them in different places. Where only a bound is given, the exact number is not on record here.

This is an account of results in patent US7642085B2, “Protein arrays” (priority 2002, dated 2010).

For data set [1], the system named is E. coli DH10B cells. As to the kind of experiment: growth rate of cells grown in the presence of the unnatural amino acid. Particulars: 1 mM; cells transformed with mutRNACUA^Tyr, LW1RS and Z domain gene (Lys7TAG).
Description: E. coli DH10B cells cotransformed with pLEIZ and pBK-LW1RS were grown in minimal media containing 1% glycerol and 0.3 mM leucine (GMML media) with 25 μg/mL kanamycin, 34 μg/mL of chloramphenicol, and 1.0 mM p-acetyl-(±)-phenylalanine. When cells reach an OD600 of 0.5, isopropyl-β-D-thiogalactopyranoside (IPTG) (1 mM) was added to induce polypeptide expression.
To test the ability of the evolved synthetase and the mutRNACUA^Tyr to selectively incorporate p-acetyl-L-phenylalanine into polypeptides, an amber stop codon was substituted at a permissive site (Lys7) in the gene for the Z domain of staphylococcal protein A (32) with a COOH-terminal His6 tag. […] Cells transformed with the mutRNACUA^Tyr, LW1RS and Z domain gene (Lys7TAG) were grown in the presence of 1 mM p-acetyl-(±)-phenylalanine.
Data set [2] has as its system cells harboring mutant TyrRS plasmids. Briefly: chloramphenicol resistance of cells harboring mutant TyrRS plasmids selected for m-acetyl phenylalanine. In kind it is cell-based. An excerpt: Preparation of Mutant TyrRS Library Plasmids. A library of plasmids encoding mutant M. jannaschii TryRSs directed at meta-substituted tyrosine derivatives was constructed, generally following the methods described in Example 1 of WO 2002/085923. Briefly, six residues (Tyr^32, Ala^67, His^70, Gln^155, Asp^158, Ala^167) in the active site of M. jannaschii TyrRS that are within 6.9 Å of the meta-position of the aryl ring of bound tyrosine in the crystal structure of Bacillus stearothermophilus TyrRS were mutated to all 20 amino acids at DNA level using the NNK codon scheme as described in Example 1 above. The constructed plasmid library pBK-lib contained around 1×10^9 independent clones.
Evolution of Orthogonal tRNA-synthetase Pairs for Incorporation of m-acetyl Phenylalanine. After 3 rounds of positive selection and 2 rounds of negative selection, five candidate clones (SEQ ID NO: 17-21 of WO 2002/085923) emerged whose survival in chloramphenicol was dependent on the addition of the unnatural amino acid. In the absence of m-acetyl phenylalanine, the IC50 of chloramphenicol resistance for cells harboring the one of the […] mutant TyrRS plasmids is 20 μg/ml. In the presence of m-acetyl phenylalanine, the IC50 of resistance to chloramphenicol for the same cells is 100 μg/ml. […]

For data set [3], the system named is E. coli cells expressing mutant TyrRS and mutRNACUA^Tyr. As to the kind of experiment: in vivo CAT assay: chloramphenicol resistance of cells expressing selected mutant TyrRS and mutRNACUA^Tyr (Asp112TAG CAT gene). It counts as cell-based, Escherichia coli. The following applies: for IC50: Escherichia coli, read-out: IC50 value of chloramphenicol, eleven mutant TyrRS. The procedure: In the positive selection, plasmid pYC-J17 was used to express the mutRNACUA^Tyr gene and the chloramphenicol acetyl transferase (CAT) gene with a TAG stop codon at Asp112 (4). Supercoiled DNA encoding the TyrRS library was transformed into E. coli DH10B competent cells containing pYC-J17. Cells were then plated on minimal media plates containing 1% glycerol and 0.3 mM leucine (GMML) with 17 μg/mL tetracycline, 25 μg/mL kanamycin, 60 μg/mL of chloramphenicol, and 1 mM p-acetyl-L-phenylalanine. After incubation at 37° C. for 40 hours, colonies were pooled, and plasmids were isolated. Plasmids encoding mutant synthetases (pBK plasmids) were separated from pYC-J17 using gel electrophoresis and transformed into E. coli DH10B competent cells containing pLWJ17B3 for negative selection. […] Transformed cells were grown on LB (Luria-Bertani) plates containing 0.2% arabinose, 50 μg/ml kanamycin, and 35 μg/ml chloramphenicol. After 8 hours, cells were removed from the plate, and pBK plasmids were purified for further rounds of selection. In the second and third round of positive selection, the concentration of chloramphenicol was increased to 80 and 100 μg/mL, respectively. […] The polypeptide sequences of these mutant TyrRS converged on 3 independent clones LW1, LW5 and LW6, although the codon usage of each mutant TyrRS differs.
The Methanococcus jannaschii tyrosyl-tRNA synthetase (TyrRS) and a mutant tyrosine amber suppressor tRNA (mutRNACUA^Tyr) were used as the starting point for the generation of the orthogonal tRNA-synthetase pairs. […] To change the amino acid specificity of the TyrRS so that it charges p-acetyl-L-phenylalanine and not any of the common 20 amino acids, a library of M. jannaschii TyrRS mutants was generated and screened. The crystal structure of the homologous Bacillus stearothertnophilus TyrRS (31) was used to identify those residues that are within 6.5 Å of the para position of the aryl ring of bound tyrosine. Five corresponding residues (Tyr32, Glu107, Asp158, Ile159 and Leu162) in the active site of M. jannaschii TyrRS were randomly mutated by polymerase chain reaction (PCR) to generate a library 1.6×10^9 in size (4). This TyrRS mutant library was first passed through a positive selection in the presence of 1 mM p-acetyl-L-phenylalanine which is based on the suppression of an amber stop codon at nonessential residue (Asp 112) in chloramphenicol acetyl transferase (CAT) gene encoded on plasmid pYC-J17 (4) in E. coli. Cells surviving in chloramphenicol must encode a mutant synthetase that aminoacylates the mutRNACUA^Tyr with either a common amino acid(s) or p-acetyl-L-phenylalanine. […]

Data set [4] has as its system mutant Z domain protein expressed by mutRNACUA^Tyr/LW1RS. Briefly: fidelity of unnatural amino acid incorporation into Z domain (Lys7TAG), by FT-ICR MS. The following applies: from a signal-to-noise ratio of more than 1500 in the intact protein mass spectrum. More on the design: species or system E. coli.
Excerpt: Plasmid pLEIZ was used to express the Z-domain gene with an amber codon at the 7th position and a COOH-terminal His6 tag under the control of a bacteriophage T5 promoter and t0 terminator, and the mutRNACUA^Tyr gene under the control of the lpp promoter and rrnC terminator. The mutant synthetase gene isolated from clone LW1 (LW1RS) was encoded in plasmid pBK-LW1RS under the control of the constitutive E. coli GlnRS promoter and terminator. E. coli DH10B cells cotransformed with pLEIZ and pBK-LW1RS were grown in minimal media containing 1% glycerol and 0.3 mM leucine (GMML media) with 25 μg/mL kanamycin, 34 μg/mL of chloramphenicol, and 1.0 mM p-acetyl-(±)-phenylalanine. When cells reach an OD600 of 0.5, isopropyl-β-D-thiogalactopyranoside (IPTG) (1 mM) was added to induce polypeptide expression. […] The yield of polypeptide was measured by Bradford assay (BCA kit, Biorad, Hercules, Calif.). […]
To test the ability of the evolved synthetase and the mutRNACUA^Tyr to selectively incorporate p-acetyl-L-phenylalanine into polypeptides, an amber stop codon was substituted at a permissive site (Lys7) in the gene for the Z domain of staphylococcal protein A (32) with a COOH-terminal His6 tag. Z domain has a molecular weight of about 7.9 kD, so its mass can be measured with very high accuracy using ion cyclotron resonance mass spectrometry. […]

Take `CC(=O)c1ccc(CC(N)C(=O)O)cc1` (racemic) [p-acetyl-(±)-phenylalanine]: in data set [1], the “effect on growth rate of cells” value is given as “did not affect the growth rate of cells”.
As a reminder, the IC50 is the point on the concentration scale where inhibition reaches its midpoint. `O=C(N[C@H](CO)[C@H](O)c1ccc([N+](=O)[O-])cc1)C(Cl)Cl` [chloramphenicol]: the IC50 was 100 µg/mL in data set [2] (in the presence of m-acetyl phenylalanine, read-out: IC50 of resistance to chloramphenicol); 20 µg/mL (≈ 61.9 µM) in data set [2] (read-out: IC50 of chloramphenicol resistance); 9 µg/mL (≈ 27.9 µM) in data set [3] (in the absence of p-acetyl-L-phenylalanine); 120 µg/mL in data set [3] (in the presence of p-acetyl-L-phenylalanine). Further, the “chloramphenicol concentration on which cells survived” value in data set [3] (GMML plates, in the absence of p-acetyl-L-phenylalanine) was determined as 9 µg/mL. The “chloramphenicol concentration in which cells survived” value in data set [3] (GMML plates, in the presence of p-acetyl-L-phenylalanine) was 120 µg/mL.
Regarding `CC(=O)c1ccc(C[C@H](N)C(=O)O)cc1` [p-acetyl-L-phenylalanine], the “fidelity for the incorporation” value in data set [4] is reported as greater than 99.8%.
